Where a name gives a salt, the structure may show the parent alone. Read-outs that look alike come from different tables or passages of the source.
What was measured:
human IBAT = biological target: T1, human IBAT (Homo sapiens, UniProt Q12908); assay: In vitro assay of IBAT-mediated uptake of [14C]-taurocholate (TC) in H14 cells; format: cell-based
T1 construct: expressed in transfected cells; host or cells: Baby hamster kidney (BHK) cells, clone H14
T1 sequence (Q12908 1-348): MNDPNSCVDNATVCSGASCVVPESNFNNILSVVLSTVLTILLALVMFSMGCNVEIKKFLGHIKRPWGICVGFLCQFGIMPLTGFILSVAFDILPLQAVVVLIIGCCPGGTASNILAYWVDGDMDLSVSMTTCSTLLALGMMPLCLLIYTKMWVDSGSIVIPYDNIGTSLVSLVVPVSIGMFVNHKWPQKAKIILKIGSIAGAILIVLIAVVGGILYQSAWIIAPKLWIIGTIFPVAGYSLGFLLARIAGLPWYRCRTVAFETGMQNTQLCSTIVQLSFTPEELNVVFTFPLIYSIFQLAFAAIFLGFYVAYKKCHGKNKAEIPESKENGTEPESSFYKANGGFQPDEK
How it was run: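 BHK cells stably expressing human IBAT (H14) were incubated 2 h at 37° C with compound and 3 μM final [14C]-taurocholate in DMEM (4.5 g/L glucose) plus 0.2% fatty acid-free BSA. After cold PBS washes, cell-associated radioactivity was measured by scintillation counting.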

fecal bile acid (FBA) = assay: Rat gavage assay (fecal bile acid increase); format: in vivo
Method: Male Wister rats (275-300 g) are administered IBAT inhibitors using an oral gavage procedure. Drug or vehicle (0.2% Tween 80 in water) is administered once a day (9:00-10:0 a.m.) for 4 days at varying dosages in a final volume of 2 mL per kilogram of body weight. Total fecal samples are collected during the final 48 hours of the treatment period and analyzed for bile acid content using an enzymatic assay as described below. Compound efficacy is determined by comparison of the increase in fecal bile acid (FBA) concentration in treated rats to the mean FBA concentration of rats in the vehicle group.
Measurement of Fecal Bile Acid Concentration (FBA)
Total fecal output from individually housed hamsters was collected for 24 or 48 hours, dried under a stream of nitrogen, pulverized and weighed. Approximately 0.1 gram was weighed out and extracted into an organic solvent (butanol/water). Following separation and drying, the residue was dissolved in methanol and the amount of bile acid present was measured enzymatically using the 3α-hydroxysteroid steroid dehydrogenase reaction with bile acids to reduce NAD. (Reference: Mashige, F., et al. (1981) Clin. Chem. 27, 1352).

H14 cells = assay: In vitro assay of uptake of [14C]-alanine; format: cell-based, hamster; conditions: Mesocricetus auratus
Method: Baby hamster kidney cells (BHK) transfected with the cDNA of human IBAT (H14 cells) are seeded at 60,000 cells/well in 96 well Top-Count tissue culture plates for assays run within in 24 hours of seeding, 30,000 cells/well for assays run within 48 hours, and 10,000 cells/well for assays run within 72 hours.
On the day of assay, the cell monolayer is gently washed once with 100 μl assay buffer (Dulbecco's Modified Eagle's medium with 4.5 g/L glucose+0.2% (w/v) fatty acid free bovine serum albumin-(FAF)BSA). To each well 50 μl of a two-fold concentrate of test compound in assay buffer is added along with 50 μl of 6 μM [^14C]-taurocholate in assay buffer (final concentration of 3 μM [^14C]-taurocholate). The cell culture plates are incubated 2 hours at 37° C. prior to gently washing each well twice with 100 μl 4° C. Dulbecco's phosphate-buffered saline (PBS) containing 0.2% (w/v) (FAF)BSA. The wells are then gently washed once with 100 μl 4° C. PBS without (FAF)BSA. To each 200 μl of liquid scintillation counting fluid is added, the plates are heat sealed and shaken for 30 minutes at room temperature prior to measuring the amount of radioactivity in each well on a Packard Top-Count instrument.
In Vitro Assay of Compounds that Inhibit Uptake of [^14C3-Alanine
The alanine uptake assay is performed in an identical fashion to the taurocholate assay, with the exception that labeled alanine is substituted for the labeled taurocholate.

[1] = In Vitro Taurocholate Uptake, Table 10, read-out: Human TC IC50
[2] = H14 cells, Table 5, read-out: IC50 uM (In vitro Taurocholate Cell Uptake)

Row | melting point [°C] | IC50 (human IBAT; [1]) [µM] | IC50 (human IBAT; [2]) [µM] | SMILES | further results
1 | 246 to 248 | – | – | CCCCC1(CCCC)CS(=O)(=O)c2ccc(N(C)C)cc2[C@@H](c2cccc(NC(=O)Nc3cccc(C[N+]45CCN(CC4)CC5)c3)c2)[C@H]1O.[Cl-] | –
2 | 80 to 85 | 0.011 | – | CCCCC1(CCCC)CS(=O)(=O)c2ccc(N(C)C)cc2[C@@H](c2ccc(OCCCCCc3nn[nH]n3)cc2)[C@H]1O [Example 1420, (4R-cis)-3,3-Dibutyl-7-(dimethylamino)-2,3,4,5-tetrahydro-5-[4-[[5-(1H-tetrazol-5-yl)pentyl]oxy]phenyl]-1-benzothiepin-4-ol 1,1-dioxide] | Delta (micromoles fecal bile acid per day) (fecal bile acid (FBA); dose 2 mg/kg/day): 53.1 micromoles fecal bile acid per day; Delta (micromoles fecal bile acid per day) (fecal bile acid (FBA); dose .016 mg/kg/day): 29.6 micromoles fecal bile acid per day; Delta (micromoles fecal bile acid per day) (fecal bile acid (FBA); dose .08 mg/kg/day): 38.1 micromoles fecal bile acid per day; Delta (micromoles fecal bile acid per day) (fecal bile acid (FBA); dose .4 mg/kg/day): 45 micromoles fecal bile acid per day
3 | – | – | 3 | CCCC[C@]1(CC)CS(=O)(=O)c2ccc(NO)cc2[C@H](c2ccccc2)[C@@H]1O [Example 37, (3α,4α,5α) 3-Butyl-3-ethyl-4-hydroxy-7-hydroxyamino-5-phenyl-2,3,4,5-tetrahydrobenzothiepine-1,1-dioxide] | inhibition at 5 µM (H14 cells; 5 μM): 0%
4 | 108 to 110 | 0.021 | – | CCCCC1(CCCC)CS(=O)(=O)c2ccc(N(C)C)cc2[C@@H](c2ccc(OCCCCS(N)(=O)=O)cc2)[C@H]1O [Example 1405] | –
5 | 193 to 197 | < 0.001 | – | CCCCC1(CCCC)CS(=O)(=O)c2ccc(N(C)C)cc2[C@@H](c2ccc(OCCCCC[N+](C)(C)CC[N+](C)(C)CC)cc2)[C@H]1O [Example 1418, (4R-cis)-N-[5-[4-[3,3-Dibutyl-7-(dimethylamino)-2,3,4,5-tetrahydro-4-hydroxy-1,1-dioxido-1-benzothiepin-5-yl]phenoxy]pentyl]-N′-ethyl-N,N,N′,N′-tetramethyl-1,2-ethanediaminium dichloride] | Delta (micromoles fecal bile acid per day) (fecal bile acid (FBA); dose 2 mg/kg/day): 20.3 micromoles fecal bile acid per day; Delta (micromoles fecal bile acid per day) (fecal bile acid (FBA); dose .016 mg/kg/day): −10 micromoles fecal bile acid per day; Delta (micromoles fecal bile acid per day) (fecal bile acid (FBA); dose .08 mg/kg/day): −4.6 micromoles fecal bile acid per day; Delta (micromoles fecal bile acid per day) (fecal bile acid (FBA); dose .4 mg/kg/day): 29.5 micromoles fecal bile acid per day
6 | – | – | 50 | CCCCC1(CC)C=C(c2ccccc2)c2ccccc2S(=O)(=O)C1 (centres unmarked) [Example 7, 3-Butyl-3-ethyl-5-phenyl-2,3-dihydrobenzothiepine-1,1-dioxide] | inhibition at 100 µM (H14 cells): 49.3%
7 | 119.5 | 0.026 | – | CCCCC1(CCCC)CS(=O)(=O)c2ccc(N(C)C)cc2[C@@H](c2ccc(OCCOCCC(C(=O)O)C(=O)O)cc2)[C@H]1O [Example 1432, (4S-cis)-[2-[2-[4-[3,3-Dibutyl-7-(dimethylamino)-2,3,4,5-tetrahydro-4-hydroxy-1,1-dioxido-1-benzothiepin-5-yl]phenoxy]ethoxy]ethyl]propanedioic acid] | Delta (micromoles fecal bile acid per day) (fecal bile acid (FBA); dose 5 mg/kg/day): 36.2 micromoles fecal bile acid per day; Delta (micromoles fecal bile acid per day) (fecal bile acid (FBA); dose .04 mg/kg/day): 2.4 micromoles fecal bile acid per day; Delta (micromoles fecal bile acid per day) (fecal bile acid (FBA); dose .2 mg/kg/day): 9.7 micromoles fecal bile acid per day
8 | – | – | 1.5 | CCCC[C@]1(CC)CS(=O)(=O)c2ccccc2[C@@H](c2ccc(C(=O)OC)cc2)[C@H]1O [Example 43, (3α,4β,5β) 3-Butyl-5-(4-carbomethoxyphenyl)-3-ethyl-4-hydroxy-2,3,4,5-tetrahydrobenzothiepine-1,1-dioxide] | inhibition at 25 µM (H14 cells; 25 μM): 16%
9 | – | – | 8 | CCCCC1(CC)CS(=O)(=O)c2cc(OCC)ccc2C(c2ccccc2)C1O (centres unmarked) [Example 28] | inhibition at 20 µM (H14 cells): 31%
10 | 180 to 181 | – | – | CCC1(CC)CS(=O)(=O)c2ccc(NC(=O)OCc3ccccc3)cc2[C@@H](c2ccccc2)[C@H]1O [Example 286] | IC50 (human IBAT; read-out: Human TC IC50): 19 µM
11 | 118 | 0.003 | – | CCCCC1(CCCC)CS(=O)(=O)c2ccc(N(C)C)cc2[C@@H](c2ccc(OCCCCCC(C(=O)O)C(=O)O)cc2)[C@H]1O [Example 1413, (4S-cis)-[5-[4-[3,3-Dibutyl-7-(dimethylamino)-2,3,4,5-tetrahydro-4-hydroxy-1,1-dioxido-1-benzothiepin-5-yl]phenoxy]pentyl]propanedioic acid] | Delta (micromoles fecal bile acid per day) (fecal bile acid (FBA); dose 5 mg/kg/day): 52.3 micromoles fecal bile acid per day; Delta (micromoles fecal bile acid per day) (fecal bile acid (FBA); dose .04 mg/kg/day): 19 micromoles fecal bile acid per day; Delta (micromoles fecal bile acid per day) (fecal bile acid (FBA); dose .2 mg/kg/day): 42.4 micromoles fecal bile acid per day
12 | 67 to 72.5 | 0.003 | – | CCCCC1(CCCC)CS(=O)(=O)c2ccc(N(C)C)cc2[C@@H](c2ccc(OCCCCCNC(=N)N)cc2)[C@H]1O [Example 1422, (4R-cis)-[5-[4-[3,3-Dibutyl-7-(dimethylamino)-2,3,4,5-tetrahydro-4-hydroxy-1,1-dioxido-1-benzothiepin-5-yl]phenoxy]pentyl]guanidine] | –
13 | – | – | 2 | CCCC[C@]1(CC)CS(=O)(=O)c2ccc(OC)cc2[C@H](c2ccccc2)[C@@H]1O [Example 48, (3α,4α,5α) 3-Butyl-3-ethyl-4-hydroxy-7-methoxy-5-phenyl-2,3,4,5-tetrahydrobenzothiepine-1,1-dioxide] | inhibition at 20 µM (H14 cells): 22%
14 | 136 | – | – | CCCCC1(CCCC)CS(=O)(=O)c2ccc(N(C)C)cc2[C@@H](c2ccc(OCCCCC[n+]3cccc4ccccc43)cc2)[C@H]1O (as salt: methanesulfonate) [Example 1412, (4R-cis)-1-[5-[4-[3,3-Dibutyl-7-(dimethylamino)-2,3,4,5-tetrahydro-4-hydroxy-1,1-dioxido-1-benzothiepin-5-yl]phenoxy]pentyl]quinolinium, methanesulfonate (Salt)] | –
15 | 218 to 225 | – | – | CCCCC1(CCCC)CS(=O)(=O)c2ccc(N(C)C)cc2[C@@H](c2cccc(NC(=O)OCCC[N+]34CCN(CC3)CC4)c2)[C@H]1O.[Cl-] | –
16 | – | – | 2 | CCCCCCNc1ccc2c(c1)[C@@H](c1ccccc1)[C@@H](O)[C@](CC)(CCCC)CS2(=O)=O [Example 41, (3α,4β,5β) 3-Butyl-3-ethyl-7-(n-hexylamino)-4-hydroxy-5-phenyl-2,3,4,5-tetrahydrobenzothiepine-1,1-dioxide] | inhibition at 20 µM (H14 cells): 0%
17 | 156 to 159 | 0.014 | – | CCCCC1(CCCC)CS(=O)(=O)c2ccc(N(C)C)cc2[C@@H](c2ccc(OCc3ccc(C(=O)O)cc3)cc2)[C@H]1O [Example 1424, (4R-cis)-4-[[4-[3,3-Dibutyl-7-(dimethylamino)-2,3,4,5-tetrahydro-4-hydroxy-1,1-dioxido-1-benzothiepin-5-yl]phenoxy]methyl]benzoic acid] | –

Row | SMILES | melting point [°C] | IC50 (human IBAT; [1]) [µM] | IC50 (human IBAT; [2]) [µM] | further results
18 | O=S1(=O)CC2(CCCCC2)[C@@H](O)[C@@H](c2ccccc2)c2ccccc21 (relative stereo) [Example 60, cis-4-Hydroxy-5-phenyl-2,3,4,5-tetrahydro spiro(benzothiepine-3,1′-cyclohexane)-1,1-dioxide] | – | – | 9 | inhibition at 100 µM (H14 cells): 59%
